# According to publication PMC6979384, “Characterization of the plant homeodomain (PHD) reader family for their histone tail interactions” (Epigenetics & Chromatin, 2020):
# How the values were obtained:
# Assay in all cases: Histone peptide microarray
# Type in all cases: binding, human
# PHF8 = test system: PHF8
# Procedure, shortened: (§1)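 GST-PHD reader, 0.5 μM, probed on 293-peptide histone array (single/combinatorial PTMs); optimized array protocol; signal = mean ± SD, n = 4.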
# BPTF (PB) = test system: BPTF (PB)
# Procedure, shortened: as §1
# ING1 = test system: ING1
# Procedure, shortened: as §1
# BAZ2B = test system: BAZ2B
# Procedure, shortened: as §1
# PHF13 = test system: PHF13
# Procedure, shortened: as §1
# ING3 = test system: ING3
# Procedure, shortened: as §1
# TRIM66 (PB) = test system: TRIM66 (PB)
# Procedure, shortened: as §1
# DPF2 (PPC2W2) = test system: DPF2 (PPC2W2)
# Procedure, shortened: as §1
# CHD5 (PPCC) = test system: CHD5 (PPCC)
# Procedure, shortened: as §1
# KDM4C (TTP) = test system: KDM4C (TTP)
# Procedure, shortened: as §1
# AIRE (PP) = test system: AIRE (PP)
# Procedure, shortened: as §1
# KDM5B (3) = test system: KDM5B (3)
# Procedure, shortened: as §1
# RAG2 = test system: RAG2
# Procedure, shortened: as §1
# ING5 = test system: ING5
# Procedure, shortened: as §1
# PHF23 = test system: PHF23
# Procedure, shortened: as §1
# DIDO1 = test system: DIDO1
# Procedure, shortened: as §1
# KDM5A (3) = test system: KDM5A (3)
# Procedure, shortened: as §1
# KDM7A = test system: KDM7A
# Procedure, shortened: as §1
# KDM5B (1) = test system: KDM5B (1)
# Procedure, shortened: as §1
# PHF21A = test system: PHF21A
# Procedure, shortened: as §1
# ING2 = test system: ING2
# Procedure, shortened: as §1
# SP140L = test system: SP140L
# Procedure, shortened: as §1
# KDM5A (1) = test system: KDM5A (1)
# Procedure, shortened: as §1
# CHD4 (PPCC) = test system: CHD4 (PPCC)
# Procedure, shortened: as §1
# PHF2 = test system: PHF2
# Procedure, shortened: as §1
# ING4 = test system: ING4
# Procedure, shortened: as §1
# MLL5 = test system: MLL5
# Procedure, shortened: as §1
# CHD5 (PCC) = test system: CHD5 (PCC)
# Procedure, shortened: as §1
# PHRF1 (RP) = test system: PHRF1 (RP)
# Procedure, shortened: as §1
# TAF3 = test system: TAF3
# Procedure, shortened: as §1
# MORC3 (CW) = test system: MORC3 (CW)
# Procedure, shortened: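 Purified PHD finger domains fused to GST are screened against 293 synthetic histone peptides bearing one or several post-translational modifications. The protein is used at 0.5 μM, and the signal from four replicate arrays is averaged, with standard deviation given.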
substance,measurement,setting,value
H3.3K27bhb (15-34): H3.3 15-34,Array Heatmap value (peptide array signal),"PHF8; PHF8, sheet ""Array Heatmap"", each array performed twice, total n = 4",0.363
same,Array Heatmap value (peptide array signal),"BPTF (PB); BPTF (PB), sheet ""Array Heatmap"", each array performed twice, total n = 4",0.3432
same,Array Heatmap value (peptide array signal),"ING1; ING1, sheet ""Array Heatmap"", each array performed twice, total n = 4",0.5173
same,Array Heatmap value (peptide array signal),"BAZ2B; BAZ2B, sheet ""Array Heatmap"", each array performed twice, total n = 4",0.4313
same,Array Heatmap value (peptide array signal),"PHF13; PHF13, sheet ""Array Heatmap"", each array performed twice, total n = 4",0.6011
same,Array Heatmap value (peptide array signal),"ING3; ING3, sheet ""Array Heatmap"", each array performed twice, total n = 4",0.4499
same,Array Heatmap value (peptide array signal),"TRIM66 (PB); TRIM66 (PB), sheet ""Array Heatmap"", each array performed twice, total n = 4",0.6188
same,Array Heatmap value (peptide array signal),"DPF2 (PPC2W2); DPF2 (PPC2W2), sheet ""Array Heatmap"", each array performed twice, total n = 4",0.6281
same,Array Heatmap value (peptide array signal),"CHD5 (PPCC); CHD5 (PPCC), sheet ""Array Heatmap"", each array performed twice, total n = 4",0.5245
same,Array Heatmap value (peptide array signal),"KDM4C (TTP); KDM4C (TTP), sheet ""Array Heatmap"", each array performed twice, total n = 4",0.4386
same,Array Heatmap value (peptide array signal),"AIRE (PP); AIRE (PP), sheet ""Array Heatmap"", each array performed twice, total n = 4",0.4047
same,Array Heatmap value (peptide array signal),"KDM5B (3); KDM5B (3), sheet ""Array Heatmap"", each array performed twice, total n = 4",0.4143
same,Array Heatmap value (peptide array signal),"RAG2; RAG2, sheet ""Array Heatmap"", each array performed twice, total n = 4",0.2325
same,Array Heatmap value (peptide array signal),"ING5; ING5, sheet ""Array Heatmap"", each array performed twice, total n = 4",0.34
same,Array Heatmap value (peptide array signal),"PHF23; PHF23, sheet ""Array Heatmap"", each array performed twice, total n = 4",0.5306
same,Array Heatmap value (peptide array signal),"DIDO1; DIDO1, sheet ""Array Heatmap"", each array performed twice, total n = 4",0.6388
same,Array Heatmap value (peptide array signal),"KDM5A (3); KDM5A (3), sheet ""Array Heatmap"", each array performed twice, total n = 4",0.404
same,Array Heatmap value (peptide array signal),"KDM7A; KDM7A, sheet ""Array Heatmap"", each array performed twice, total n = 4",0.312
same,Array Heatmap value (peptide array signal),"KDM5B (1); KDM5B (1), sheet ""Array Heatmap"", each array performed twice, total n = 4",0.6279
same,Array Heatmap value (peptide array signal),"PHF21A; PHF21A, sheet ""Array Heatmap"", each array performed twice, total n = 4",0.4386
same,Array Heatmap value (peptide array signal),"ING2; ING2, sheet ""Array Heatmap"", each array performed twice, total n = 4",0.6144
same,Array Heatmap value (peptide array signal),"SP140L; SP140L, sheet ""Array Heatmap"", each array performed twice, total n = 4",0.3378
same,Array Heatmap value (peptide array signal),"KDM5A (1); KDM5A (1), sheet ""Array Heatmap"", each array performed twice, total n = 4",0.4361
same,Array Heatmap value (peptide array signal),"CHD4 (PPCC); CHD4 (PPCC), sheet ""Array Heatmap"", each array performed twice, total n = 4",0.5447
same,Array Heatmap value (peptide array signal),"PHF2; PHF2, sheet ""Array Heatmap"", each array performed twice, total n = 4",0.5233
same,Array Heatmap value (peptide array signal),"ING4; ING4, sheet ""Array Heatmap"", each array performed twice, total n = 4",0.4357
same,Array Heatmap value (peptide array signal),"MLL5; MLL5, sheet ""Array Heatmap"", each array performed twice, total n = 4",0.5648
same,Array Heatmap value (peptide array signal),"CHD5 (PCC); CHD5 (PCC), sheet ""Array Heatmap"", each array performed twice, total n = 4",0.7166
same,Array Heatmap value (peptide array signal),"PHRF1 (RP); PHRF1 (RP), sheet ""Array Heatmap"", each array performed twice, total n = 4",0.4098
same,Array Heatmap value (peptide array signal),"TAF3; TAF3, sheet ""Array Heatmap"", each array performed twice, total n = 4",0.2621
same,Array Heatmap value (peptide array signal),"MORC3 (CW); MORC3 (CW), sheet ""Array Heatmap"", each array performed twice, total n = 4",0.3496
H3R2me1 + K4me2: H3 1-20,"Array Heatmap signal, PHF8","PHF8; GST-tagged PHF8, histone peptide array, arrays performed twice, n of 4",0.4684
same,"Array Heatmap signal, BPTF (PB)","BPTF (PB); GST-tagged BPTF (PB = PHD + Bromodomain), histone peptide array, arrays performed twice, n of 4",0.3634
same,"Array Heatmap signal, ING1","ING1; GST-tagged ING1, histone peptide array, arrays performed twice, n of 4",0.6158
same,"Array Heatmap signal, BAZ2B","BAZ2B; GST-tagged BAZ2B, histone peptide array, arrays performed twice, n of 4",0.4449
same,"Array Heatmap signal, PHF13","PHF13; GST-tagged PHF13, histone peptide array, arrays performed twice, n of 4",0.6859
same,"Array Heatmap signal, ING3","ING3; GST-tagged ING3, histone peptide array, arrays performed twice, n of 4",0.5383
same,"Array Heatmap signal, TRIM66 (PB)","TRIM66 (PB); GST-tagged TRIM66 (PB = PHD + Bromodomain), histone peptide array, arrays performed twice, n of 4",0.6589
same,"Array Heatmap signal, DPF2 (PPC2W2)","DPF2 (PPC2W2); GST-tagged DPF2 (PPC2W2 = Dual PHD + C2W2-type Zn-finger), histone peptide array, arrays performed twice, n of 4",0.7133
same,"Array Heatmap signal, CHD5 (PPCC)","CHD5 (PPCC); GST-tagged CHD5 (PPCC = Dual PHD + Dual Chromodomain), histone peptide array, arrays performed twice, n of 4",0.5419
same,"Array Heatmap signal, KDM4C (TTP)","KDM4C (TTP); GST-tagged KDM4C (TTP = Tandem Tudor domain + PHD), histone peptide array, arrays performed twice, n of 4",0.4903
same,"Array Heatmap signal, AIRE (PP)","AIRE (PP); GST-tagged AIRE (PP), histone peptide array, arrays performed twice, n of 4",0.3934
same,"Array Heatmap signal, KDM5B (3)","KDM5B (3); GST-tagged KDM5B (3), histone peptide array, arrays performed twice, n of 4",0.6308
same,"Array Heatmap signal, RAG2","RAG2; GST-tagged RAG2, histone peptide array, arrays performed twice, n of 4",0.5456
same,"Array Heatmap signal, ING5","ING5; GST-tagged ING5, histone peptide array, arrays performed twice, n of 4",0.3522
same,"Array Heatmap signal, PHF23","PHF23; GST-tagged PHF23, histone peptide array, arrays performed twice, n of 4",0.6929
same,"Array Heatmap signal, DIDO1","DIDO1; GST-tagged DIDO1, histone peptide array, arrays performed twice, n of 4",0.7623
same,"Array Heatmap signal, KDM5A (3)","KDM5A (3); GST-tagged KDM5A (3), histone peptide array, arrays performed twice, n of 4",0.6755
same,"Array Heatmap signal, KDM7A","KDM7A; GST-tagged KDM7A, histone peptide array, arrays performed twice, n of 4",0.344
same,"Array Heatmap signal, KDM5B (1)","KDM5B (1); GST-tagged KDM5B (1), histone peptide array, arrays performed twice, n of 4",0.6024
same,"Array Heatmap signal, PHF21A","PHF21A; GST-tagged PHF21A, histone peptide array, arrays performed twice, n of 4",0.4826
same,"Array Heatmap signal, ING2","ING2; GST-tagged ING2, histone peptide array, arrays performed twice, n of 4",0.678
same,"Array Heatmap signal, SP140L","SP140L; GST-tagged SP140L, histone peptide array, arrays performed twice, n of 4",0.3804
same,"Array Heatmap signal, KDM5A (1)","KDM5A (1); GST-tagged KDM5A (1), histone peptide array, arrays performed twice, n of 4",0.4465
same,"Array Heatmap signal, CHD4 (PPCC)","CHD4 (PPCC); GST-tagged CHD4 (PPCC = Dual PHD + Dual Chromodomain), histone peptide array, arrays performed twice, n of 4",0.6115
same,"Array Heatmap signal, PHF2","PHF2; GST-tagged PHF2, histone peptide array, arrays performed twice, n of 4",0.6699
same,"Array Heatmap signal, ING4","ING4; GST-tagged ING4, histone peptide array, arrays performed twice, n of 4",0.4775
same,"Array Heatmap signal, MLL5","MLL5; GST-tagged MLL5, histone peptide array, arrays performed twice, n of 4",0.577
same,"Array Heatmap signal, CHD5 (PCC)","CHD5 (PCC); GST-tagged CHD5 (PCC = PHD + Dual Chromodomain), histone peptide array, arrays performed twice, n of 4",0.8739
same,"Array Heatmap signal, PHRF1 (RP)","PHRF1 (RP); GST-tagged PHRF1 (RP), histone peptide array, arrays performed twice, n of 4",0.5537
same,"Array Heatmap signal, TAF3","TAF3; GST-tagged TAF3, histone peptide array, arrays performed twice, n of 4",0.4954
same,"Array Heatmap signal, MORC3 (CW)","MORC3 (CW); GST-tagged MORC3 (CW = CW-type Zn-finger), histone peptide array, arrays performed twice, n of 4",0.6321
